ChEMBL document CHEMBL1122529, “Synthesis of 5-aryl-2H-tetrazoles, 5-aryl-2H-tetrazole-2-acetic acids, and [(4-phenyl-5-aryl-4H-1,2,4-triazol-3-yl)thio]acetic acids as possible superoxide scavengers and antiinflammatory agents” (1984)

What was measured:
Format in all cases: functional
Rattus norvegicus [1] = species: Rattus norvegicus; experiment: In Vitro superoxide scavenging activity at a concentration of 1.0 x 10E4 M.
Rattus norvegicus [2] = experiment: The mean index of reverse passive Arthus reaction was calculated 3 h-postinjection at a concentration of 30 mg/kg.
Rattus norvegicus [3] = experiment: Percentage inhibition of reverse passive Arthus reaction was reported at a concentration of 30 mg/kg.
Rattus norvegicus [4] = species: Rattus norvegicus; experiment: In Vitro superoxide scavenging activity by the analysis of variance method at concentration of 0.1 x 10E4 M
Rattus norvegicus [5] = species: Rattus norvegicus; experiment: In Vitro superoxide scavenging activity by the analysis of variance method at concentration of 0.5 x 10E4 M
Rattus norvegicus [6] = experiment: Percentage inhibition of Carrageenan-induced rat paw edema at a concentration of 32 mg/kg
Rattus norvegicus [7] = experiment: Percentage inhibition of Carrageenan-induced rat paw edema at a concentration of 0.3 mg/kg
Rattus norvegicus [8] = species: Rattus norvegicus; experiment: In Vitro superoxide scavenging activity by the analysis of variance method at concentration of 2.0 x 10E4 M

For `COc1ccc(-c2nnn(CC(=O)O)n2)cc1OC`, the inhibition (Rattus norvegicus [1]) was 0%.
`O=C(O)CSc1nnc(-c2cc(O)c(O)c(O)c2)n1-c1ccccc1` was tested, and the inhibition (Rattus norvegicus [1]) was 65.7%, the Mean index (Rattus norvegicus [2]) was 52 and the inhibition in vivo at 30 mg/kg (Rattus norvegicus [3]) was -28.2%. For the same compound, the inhibition (Rattus norvegicus [4]) was 16.7%, the inhibition (Rattus norvegicus [5]) was 22.1% and the inhibition in vivo at 32 mg/kg (Rattus norvegicus [6]) was 18%.
With `COc1ccc(-c2nn[nH]n2)cc1` the inhibition (Rattus norvegicus [1]) was 0%.
`O=C(O)Cn1nnc(-c2ccccc2)n1` gave an inhibition (Rattus norvegicus [1]) of 0%.
With `CCCCC1C(=O)N(c2ccccc2)N(c2ccccc2)C1=O` [PHENYLBUTAZONE] the inhibition in vivo at 32 mg/kg (Rattus norvegicus [6]) was 47%.
For `COc1ccc(-c2nnc(SCC(=O)O)n2-c2ccccc2)cc1OC`, the inhibition (Rattus norvegicus [1]) was 0%.
For `COc1cc(-c2nn[nH]n2)cc(OC)c1OC`, the inhibition (Rattus norvegicus [1]) was 0%.
Work on `O=C(O)CSc1nnc(-c2ccc(O)cc2)n1-c1ccccc1` yielded an inhibition (Rattus norvegicus [1]) of 11.6%.
Work on `O=C(O)Cn1nnc(-c2ccc(O)cc2)n1` yielded an inhibition (Rattus norvegicus [1]) of 0%.
Compound `C[C@@H]1C[C@H]2[C@@H]3CCC4=CC(=O)C=C[C@]4(C)[C@@]3(F)[C@@H](O)C[C@]2(C)[C@@]1(O)C(=O)CO` [DEXAMETHASONE] has an inhibition in vivo at 0.3 mg/kg (Rattus norvegicus [7]) of 69%.
With `O=C(O)CSc1nnc(-c2ccc(O)c(O)c2)n1-c1ccccc1` the inhibition (Rattus norvegicus [1]) was 21.5%, the inhibition (Rattus norvegicus [4]) was 8.3% and the inhibition (Rattus norvegicus [5]) was 11.8%.
Compound `Oc1ccc(-c2nn[nH]n2)cc1` has an inhibition (Rattus norvegicus [8]) of 0%.
`COc1ccc(-c2nn[nH]n2)cc1OC` showed an inhibition (Rattus norvegicus [1]) of 0%.
Compound `O=C(O)Cn1nnc(-c2cc(O)c(O)c(O)c2)n1` has an inhibition (Rattus norvegicus [1]) of 78%, a Mean index (Rattus norvegicus [2]) of 52 and an inhibition in vivo at 30 mg/kg (Rattus norvegicus [3]) of -28.7%. For the same compound, the inhibition (Rattus norvegicus [4]) was 15.3%, the inhibition (Rattus norvegicus [5]) was 55.9% and the inhibition in vivo at 32 mg/kg (Rattus norvegicus [6]) was 14%.
With `COc1cc(-c2nnn(CC(=O)O)n2)cc(OC)c1OC` the inhibition (Rattus norvegicus [1]) was 0%.
Compound `COc1cc(-c2nnc(SCC(=O)O)n2-c2ccccc2)cc(OC)c1OC` has an inhibition (Rattus norvegicus [1]) of 0%.
With `Oc1cc(-c2nn[nH]n2)cc(O)c1O` the inhibition (Rattus norvegicus [1]) was 66.9%, the Mean index (Rattus norvegicus [2]) was 42.6 and the inhibition in vivo at 30 mg/kg (Rattus norvegicus [3]) was -5%. The inhibition (Rattus norvegicus [4]) was 16%, the inhibition (Rattus norvegicus [5]) was 48.4% and the inhibition in vivo at 32 mg/kg (Rattus norvegicus [6]) was 6%.
`O=C(O)Cn1nnc(-c2ccc(O)c(O)c2)n1` showed an inhibition (Rattus norvegicus [1]) of 18.8%, an inhibition (Rattus norvegicus [4]) of 0% and an inhibition (Rattus norvegicus [5]) of 7.9%.
`O=C(O)CSc1nnc(-c2ccccc2)n1-c1ccccc1` showed an inhibition (Rattus norvegicus [1]) of 0%.
In the case of `COc1ccc(-c2nnc(SCC(=O)O)n2-c2ccccc2)cc1`, the inhibition (Rattus norvegicus [1]) is reported as 0%.
Compound `c1ccc(-c2nnn[nH]2)cc1` has an inhibition (Rattus norvegicus [1]) of 0%.
`Oc1ccc(-c2nn[nH]n2)cc1O` was tested, and the inhibition (Rattus norvegicus [1]) was 37.5%, the inhibition (Rattus norvegicus [4]) was 6.9% and the inhibition (Rattus norvegicus [5]) was 23%.
`COc1ccc(-c2nnn(CC(=O)O)n2)cc1` showed an inhibition (Rattus norvegicus [1]) of 0%.
